3 compounds from BindingDB's records for doi:10.1016/j.ejmech.2021.113317 (Universities of Shandong, 2021) can be followed below.

pIC50: −log10 of the molar value.

Data set [1] can be described thus: Reversal of BCRP-mediated multidrug resistance in human KBV cells assessed as mitoxantrone IC50 at 10 uM after 72 hrs in presence of mitoxantrone by MTT assay (Rvb = 1186.50 +/- 29.24 nM).
A short description of data set [2]: Reversal of BCRP-mediated multidrug resistance in human KBV cells assessed as mitoxantrone IC50 at 5 uM after 72 hrs in presence of mitoxantrone by MTT assay (Rvb = 1186.50 +/- 29.24 nM).
Data set [3] can be described thus: Reversal of MRP2-mediated multidrug resistance in human KBV cells assessed as cisplatin IC50 at 10 uM after 72 hrs in presence of cisplatin by MTT assay (Rvb = 4902.89 +/- 130.33 nM).
The nature of data set [4]: Reversal of MRP2-mediated multidrug resistance in human KBV cells assessed as cisplatin IC50 at 5 uM after 72 hrs in presence of cisplatin by MTT assay (Rvb = 4902.89 +/- 130.33 nM).

With `CSCC[C@H](NC(=O)OC(C)(C)C)C(=O)O[C@H]1CC[C@]2(C)[C@H]3C[C@@H](O)[C@@H]4[C@@H]([C@]5(C)CC[C@H](C(C)(C)O)O5)CC[C@@]4(C)[C@]3(C)CC[C@H]2C1(C)C`, the pIC50 in data set [1] was 6.13; in data set [2], 6.07; in data set [3] it was under 5.30; in data set [4] it was under 5.30.

Turning to `CSCC[C@H](NC(=O)OC(C)(C)C)C(=O)O[C@H]1CC[C@]2(C)[C@H]3C[C@@H](O)[C@@H]4[C@@H]([C@]5(C)CC[C@@H](C(C)(C)O)O5)CC[C@@]4(C)[C@]3(C)CC[C@H]2C1(C)C`, the negative-log IC50 (pIC50) is 6.00 in data set [1], 5.84 in data set [2], under 5.30 in data set [3] and under 5.30 in data set [4].

For `COc1ccc(CCN(C)CCCC(C#N)(c2ccc(OC)c(OC)c2)C(C)C)cc1OC` (centres undefined) [NSC_62969], the negative logarithm of the IC50 (pIC50) in data set [3] is under 5.30.
